Assay: mn = molality of the nth substance listed, in mol/kg
Conditions: 101 kPa, Liquid; for molar conductivity: Alternating current cell with electrodes; for mass density: Vibrating tube method

Cc1ccc(C(=O)[O-])c(O)c1.[Na+] [sodium 2-hydroxy-4-methylbenzoate] + O
Conditions | mass density, 298.15 K [kg/m3] | molar conductivity, 278.15 K [S·m2/mol] | molar conductivity, 283.15 K [S·m2/mol] | molar conductivity, 288.15 K [S·m2/mol] | molar conductivity, 293.15 K [S·m2/mol] | molar conductivity, 298.15 K [S·m2/mol] | molar conductivity, 303.15 K [S·m2/mol] | molar conductivity, 308.15 K [S·m2/mol] | molar conductivity, 313.15 K [S·m2/mol]
m1 = 0.0008766 | – | 0.004463 | 0.005159 | 0.005899 | 0.006679 | 0.007495 | 0.008345 | 0.009213 | 0.01012
m1 = 0.001205 | – | 0.004451 | 0.005145 | 0.00588 | 0.006648 | 0.007462 | 0.008308 | 0.009184 | 0.01008
m1 = 0.001572 | – | 0.004436 | 0.005122 | 0.005855 | 0.006629 | 0.007439 | 0.008283 | 0.009158 | 0.01005
m1 = 0.001976 | – | 0.004416 | 0.005105 | 0.005835 | 0.006608 | 0.007414 | 0.008258 | 0.009136 | 0.01003
m1 = 0.002453 | – | 0.004401 | 0.005087 | 0.005815 | 0.006584 | 0.007387 | 0.008225 | 0.009092 | 0.009964
m1 = 0.00301 | – | 0.004382 | 0.005065 | 0.00579 | 0.006555 | 0.007356 | 0.008178 | 0.009044 | 0.009933
m1 = 0.003696 | – | 0.004364 | 0.005044 | 0.005765 | 0.006518 | 0.007314 | 0.008146 | 0.009009 | 0.009892
m1 = 0.004538 | – | 0.004345 | 0.005022 | 0.005734 | 0.006493 | 0.007285 | 0.008112 | 0.008969 | 0.009844
m1 = 0.005464 | 997.441 | 0.004332 | 0.004993 | 0.005707 | 0.006462 | 0.007251 | 0.008073 | 0.008927 | 0.009798
m1 = 0.09872 | 1004.12 | – | – | – | – | – | – | – | –

O=C([O-])c1ccccc1.[Na+] [sodium benzoate] + O
Conditions | mass density, 298.15 K [kg/m3] | molar conductivity, 278.15 K [S·m2/mol] | molar conductivity, 283.15 K [S·m2/mol] | molar conductivity, 288.15 K [S·m2/mol] | molar conductivity, 293.15 K [S·m2/mol] | molar conductivity, 298.15 K [S·m2/mol] | molar conductivity, 303.15 K [S·m2/mol] | molar conductivity, 308.15 K [S·m2/mol] | molar conductivity, 313.15 K [S·m2/mol]
m1 = 0.0002136 | – | 0.004828 | 0.005584 | 0.006384 | 0.007233 | 0.00812 | 0.009043 | 0.01 | 0.01098
m1 = 0.0004649 | – | 0.00479 | 0.005542 | 0.006339 | 0.007182 | 0.008063 | 0.008982 | 0.009936 | 0.01091
m1 = 0.0007334 | – | 0.004765 | 0.005514 | 0.006308 | 0.007149 | 0.008027 | 0.00894 | 0.009881 | 0.01085
m1 = 0.0009986 | – | 0.004746 | 0.005493 | 0.006283 | 0.007122 | 0.007986 | 0.008891 | 0.009829 | 0.0108
m1 = 0.001299 | – | 0.00473 | 0.005474 | 0.006253 | 0.007089 | 0.007958 | 0.00886 | 0.009801 | 0.01078
m1 = 0.0016 | – | 0.004708 | 0.005448 | 0.006234 | 0.007064 | 0.007933 | 0.008837 | 0.00977 | 0.01073
m1 = 0.001996 | – | 0.00469 | 0.005428 | 0.006211 | 0.007037 | 0.007901 | 0.008801 | 0.009733 | 0.01071
m1 = 0.002488 | – | 0.004671 | 0.005407 | 0.00619 | 0.00701 | 0.007872 | 0.00877 | 0.009663 | 0.01063
m1 = 0.003107 | – | 0.004649 | 0.00538 | 0.006164 | 0.006978 | 0.007811 | 0.008706 | 0.009625 | 0.01059
m1 = 0.003832 | – | 0.004634 | 0.005362 | 0.006129 | 0.006945 | 0.007796 | 0.008683 | 0.009598 | 0.01055
m1 = 0.00495 | 997.26 | 0.004604 | 0.00532 | 0.006084 | 0.006895 | 0.007742 | 0.008623 | 0.009539 | 0.01048
m1 = 0.08466 | 1001.94 | – | – | – | – | – | – | – | –

Cc1cccc(C(=O)O)c1[O-].[Na+] [sodium 2-hydroxy-3-methylbenzoate] + O
Conditions | mass density, 298.15 K [kg/m3] | molar conductivity, 278.15 K [S·m2/mol] | molar conductivity, 283.15 K [S·m2/mol] | molar conductivity, 288.15 K [S·m2/mol] | molar conductivity, 293.15 K [S·m2/mol] | molar conductivity, 298.15 K [S·m2/mol] | molar conductivity, 303.15 K [S·m2/mol] | molar conductivity, 308.15 K [S·m2/mol] | molar conductivity, 313.15 K [S·m2/mol]
m1 = 0.0001789 | – | 0.004702 | 0.005436 | 0.006213 | 0.007035 | 0.007891 | 0.008781 | 0.009702 | 0.01065
m1 = 0.0004159 | – | 0.004659 | 0.005386 | 0.006159 | 0.006975 | 0.007824 | 0.008709 | 0.009625 | 0.01056
m1 = 0.0007115 | – | 0.004632 | 0.005354 | 0.006119 | 0.006928 | 0.007773 | 0.008653 | 0.009562 | 0.01049
m1 = 0.001003 | – | 0.004611 | 0.00533 | 0.006091 | 0.006896 | 0.007731 | 0.008606 | 0.009511 | 0.01044
m1 = 0.001322 | – | 0.004591 | 0.005306 | 0.00606 | 0.006862 | 0.007698 | 0.00857 | 0.00947 | 0.0104
m1 = 0.001698 | – | 0.004566 | 0.005277 | 0.006032 | 0.00683 | 0.007665 | 0.008535 | 0.009432 | 0.01036
m1 = 0.002088 | – | 0.004547 | 0.005256 | 0.006008 | 0.006803 | 0.007632 | 0.008498 | 0.009395 | 0.01031
m1 = 0.002646 | – | 0.004526 | 0.005232 | 0.005981 | 0.006772 | 0.007599 | 0.008457 | 0.009327 | 0.01024
m1 = 0.003288 | – | 0.004504 | 0.005206 | 0.005951 | 0.006738 | 0.007542 | 0.008399 | 0.009286 | 0.0102
m1 = 0.004113 | – | 0.004483 | 0.005178 | 0.005905 | 0.006688 | 0.007504 | 0.008356 | 0.00924 | 0.01015
m1 = 0.005007 | 997.408 | 0.004457 | 0.00514 | 0.005873 | 0.00665 | 0.007462 | 0.008307 | 0.009184 | 0.01009
m1 = 0.09201 | 1003.59 | – | – | – | – | – | – | – | –
